In the assay the target is T1, Thyroid hormone receptor alpha (Homo sapiens, UniProt P10827).
T1 sequence (P10827 whole entry): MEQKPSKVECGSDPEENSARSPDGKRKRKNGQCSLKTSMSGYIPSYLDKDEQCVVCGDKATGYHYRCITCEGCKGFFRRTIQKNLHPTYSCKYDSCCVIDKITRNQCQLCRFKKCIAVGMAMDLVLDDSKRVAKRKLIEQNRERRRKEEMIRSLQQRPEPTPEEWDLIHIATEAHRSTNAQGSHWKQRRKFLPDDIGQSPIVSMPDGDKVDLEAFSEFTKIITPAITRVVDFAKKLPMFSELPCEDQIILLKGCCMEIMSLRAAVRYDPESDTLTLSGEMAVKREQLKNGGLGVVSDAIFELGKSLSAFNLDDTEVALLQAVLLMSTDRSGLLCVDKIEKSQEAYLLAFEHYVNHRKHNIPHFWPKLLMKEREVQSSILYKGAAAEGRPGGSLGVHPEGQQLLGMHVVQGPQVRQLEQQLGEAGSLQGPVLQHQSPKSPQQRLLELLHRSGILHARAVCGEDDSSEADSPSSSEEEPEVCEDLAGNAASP
Briefly: TRalpha-Binding Assay and Thyroid Response Element (TRAFalpha1) Reporter Assay. The following applies: pH 7; 4 °C. An excerpt: EC50 is the concentration of compound required to reach or inhibit (agonist or antagonist) 50% of T3-induced TRalpha-activation in CHOK1 cells stably transfected with hTRalpha using alkaline phosphatase reporter assay.
(A reporter such as luciferase makes a cellular process visible.)

Usually EC50 stands for the concentration at which the effect is half-maximal. A lower EC50 goes with greater potency.

On to `O=C(O)CCc1cc(Br)c(OCc2cccc(Br)c2)c(Br)c1` [3-{3,5-dibromo-4-[(3-bromophenyl)methoxy]phenyl}propanoic acid], for which the EC50 turned out to be 380 nM.

The values above are taken from BindingDB's records for doi:10.1016/j.bmcl.2007.01.009 (Karo Bio, 2007).
